Reference: patent US20170107203A1, “HETEROCYCLIC INHIBITORS OF THE SODIUM CHANNEL” (EPIRUS BIOPHARMACEUTICALS, INC., priority 2014, published 2017)

Target: T1, human Nav1.7 (Homo sapiens, UniProt Q15858)
T1 construct: expressed in transfected cells
Assay: Assessment of Nav1.7 activity on PatchXpress (voltage dependence / slow inactivation parameters)
Format: cell-based
Details: compound at 10 μM, relative to 0.2% DMSO vehicle control; for hNav1.7: Reduction in current at 20 mV (normalized data) Delta Ratio: before/after 30 sec conditioning pulse at 20 mV; for hNav1.7: Shift in voltage dependence of inactivation (mV) Delta Vhalf: PatchXpress
Procedure: The generation of a HEK 293F cell line stably expressing human Nav1.7/Navp1 was achieved by co-transfecting human SCN9A and human SCN1B cDNAs, subcloned into plasmid vectors, utilizing standard transfection techniques. Clones were selected using appropriate selection agents (0.3 mg/mL Zeocin and 0.8 mg/mL Geneticin) and maintained in Dulbecco's Modified Eagle medium, 10% fetal bovine serum, 1% non-essential amino acids to ˜80% confluence at 37° C. in a humidified incubator with 95% atmosphere and 5% CO2.
On the day of each experiment, cells that were grown to 80% confluence in a T75 flask were harvested for use on PatchXpress (Molecular Devices, CA, USA). Following a recovery period at 37° C. in a humidified incubator with 95% atmosphere and 5% CO2 in Dulbecco's Modified Eagle Medium, the media was replaced with an external recording solution containing (in mM): 90 TEACI, 50 NaCl, 1.8 CaCl2, 1 MgCl2, 10 HEPES, 10 glucose, adjusted to pH 7.4 with TEAOH and 300 mOsm with sucrose. The internal recording solution contained (in mM): 129 CsF, 2 MgCl2, 11 EGTA, 10 HEPES, 6 NaCl, 3 Na2ATP adjusted to pH 7.2 with CsOH and 280 mOsm with sucrose. The automated liquid handling facility of PatchXpress dispensed cells and added compound. Modulation of Nav1.7 channels by compounds was assessed by promoting the channels into the inactivated state using a conditioning voltage pulse of variable amplitude, followed by a brief hyperpolarizing pulse with a subsequent depolarized voltage step to measure the current amplitude in the presence and absence of compound. Compounds were assayed at 10 μM. Based upon this Patch express protocol, four electrophysiological parameters were measured relative to a 0.2% DMSO vehicle control (Table 2).

T1 sequence (Q15858 whole entry): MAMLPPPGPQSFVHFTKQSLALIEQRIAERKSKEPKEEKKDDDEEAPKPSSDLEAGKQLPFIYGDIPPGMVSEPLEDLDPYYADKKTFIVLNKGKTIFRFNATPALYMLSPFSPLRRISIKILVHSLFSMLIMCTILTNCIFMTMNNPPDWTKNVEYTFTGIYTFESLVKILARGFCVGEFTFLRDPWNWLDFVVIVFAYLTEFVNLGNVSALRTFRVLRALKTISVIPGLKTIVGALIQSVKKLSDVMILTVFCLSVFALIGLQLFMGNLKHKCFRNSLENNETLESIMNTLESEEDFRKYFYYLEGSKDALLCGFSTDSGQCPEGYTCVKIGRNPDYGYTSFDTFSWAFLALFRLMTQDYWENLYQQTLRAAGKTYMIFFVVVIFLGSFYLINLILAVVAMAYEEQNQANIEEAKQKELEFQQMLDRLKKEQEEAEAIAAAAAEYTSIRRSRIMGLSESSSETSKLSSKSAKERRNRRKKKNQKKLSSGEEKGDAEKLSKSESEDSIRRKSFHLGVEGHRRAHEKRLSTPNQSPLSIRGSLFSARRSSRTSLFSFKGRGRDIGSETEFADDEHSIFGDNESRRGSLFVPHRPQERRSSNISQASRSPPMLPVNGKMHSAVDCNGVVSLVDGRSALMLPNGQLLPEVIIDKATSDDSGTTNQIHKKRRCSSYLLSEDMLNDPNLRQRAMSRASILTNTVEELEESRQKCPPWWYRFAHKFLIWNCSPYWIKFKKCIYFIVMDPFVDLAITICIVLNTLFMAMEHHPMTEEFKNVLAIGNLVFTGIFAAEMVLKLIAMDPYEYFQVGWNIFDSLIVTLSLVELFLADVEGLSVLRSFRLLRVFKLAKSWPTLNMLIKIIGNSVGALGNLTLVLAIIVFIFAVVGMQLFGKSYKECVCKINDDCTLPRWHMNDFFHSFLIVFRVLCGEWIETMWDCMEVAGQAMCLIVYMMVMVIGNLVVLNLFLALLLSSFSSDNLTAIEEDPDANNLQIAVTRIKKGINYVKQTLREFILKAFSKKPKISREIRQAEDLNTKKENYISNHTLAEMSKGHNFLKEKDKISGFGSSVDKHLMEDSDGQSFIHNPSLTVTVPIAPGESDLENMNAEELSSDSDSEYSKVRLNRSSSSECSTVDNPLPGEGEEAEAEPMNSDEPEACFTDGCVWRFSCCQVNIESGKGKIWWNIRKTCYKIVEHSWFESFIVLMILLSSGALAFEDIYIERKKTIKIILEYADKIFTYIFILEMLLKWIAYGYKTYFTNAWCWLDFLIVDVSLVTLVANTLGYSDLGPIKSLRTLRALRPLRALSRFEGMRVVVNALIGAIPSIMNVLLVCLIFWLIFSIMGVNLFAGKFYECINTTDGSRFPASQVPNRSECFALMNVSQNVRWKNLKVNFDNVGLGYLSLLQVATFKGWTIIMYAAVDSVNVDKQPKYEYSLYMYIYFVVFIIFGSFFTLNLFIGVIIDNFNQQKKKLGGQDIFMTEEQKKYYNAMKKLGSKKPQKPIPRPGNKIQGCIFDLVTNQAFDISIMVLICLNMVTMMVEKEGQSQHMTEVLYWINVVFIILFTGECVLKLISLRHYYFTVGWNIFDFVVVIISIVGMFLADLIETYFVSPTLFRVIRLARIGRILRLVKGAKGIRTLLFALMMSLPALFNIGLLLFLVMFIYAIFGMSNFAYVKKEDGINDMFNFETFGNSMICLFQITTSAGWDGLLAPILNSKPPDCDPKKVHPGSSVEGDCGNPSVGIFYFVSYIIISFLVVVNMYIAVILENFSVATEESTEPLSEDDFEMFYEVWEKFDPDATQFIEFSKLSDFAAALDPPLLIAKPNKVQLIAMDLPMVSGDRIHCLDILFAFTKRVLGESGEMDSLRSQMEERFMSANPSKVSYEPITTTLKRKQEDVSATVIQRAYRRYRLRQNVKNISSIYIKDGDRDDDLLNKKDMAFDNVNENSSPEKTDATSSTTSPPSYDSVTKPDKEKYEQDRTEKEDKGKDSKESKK
T1 sequence (Q07699 19-218 partner): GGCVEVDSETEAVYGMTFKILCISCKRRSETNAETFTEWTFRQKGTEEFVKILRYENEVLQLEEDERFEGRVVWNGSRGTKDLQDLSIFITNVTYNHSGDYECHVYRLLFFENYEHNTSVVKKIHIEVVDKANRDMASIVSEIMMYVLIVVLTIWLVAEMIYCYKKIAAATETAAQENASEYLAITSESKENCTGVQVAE

| hNav1.7: Reduction in current at 20 mV (normalized data) Delta Ratio | hNav1.7: Voltage dependence of activation (mV) VDEP [mV] | hNav1.7: Voltage dependence of fast inactivation (mV) VDEP [mV] | hNav1.7: Shift in voltage dependence of inactivation (mV) Delta Vhalf [mV] | SMILES |
| --- | --- | --- | --- | --- |
| −0.01 | −6.80 | −4.40 | −7.20 | O=C(NCCOc1cc(F)cc(C(F)(F)F)c1)[C@H]1CCCN1 [Compound 20, (R)-N-(2-(3-fluoro-5-(trifluoromethyl)phenoxy)ethyl) pyrrolidine-2-carboxamide] |
| −0.2 | −9 | −5.9 | −12.8 | FC(F)(F)c1cc(C(F)(F)F)c2[nH]c(C3NCc4ccccc43)nc2c1 (stereo not shown) [Compound 59, 2-(isoindolin-1-y)-4,6-bis(trifluoromethyl)-1H-benzo[d]imidazole] |
| −0.02 | −8.90 | −4.40 | −2.50 | O=C(CN1CCNCC1=O)NCC(F)(F)F [Compound 47, 2-(2-oxopiperazin-1-yl)-N-(2,2,2-trifluoroethyl)acetamide] |
| 0.06 | −6.50 | −1.80 | −7.00 | O=C(NCCOc1cc(F)cc(C(F)(F)F)c1)[C@@H]1CCCN1 [Compound 22, (S)-N-(2-(3-fluoro-5-(trifluoromethyl)phenoxy)ethyl) pyrrolidine-2-carboxamide] |
| −0.21 | −8.10 | −7.90 | −18.30 | N[C@H](C(=O)NCCOc1cc(C(F)(F)F)cc(C(F)(F)F)c1)c1ccccc1 [Compound 9, (S)-2-amino-N-(2-(3,5-bis(trifluoromethyl)phenoxy)ethyl)-2-phenylacetamide] |
| −0.19 | −7.30 | −4.30 | −25.70 | Cc1cccc(C)c1OCC(C)NC(=O)[C@H](N)C(C)C (stereo partly drawn) [Compound 12, (2R)-2-amino-N-(1-(2,6-dimethylphenoxy)propan-2-yl)-3-methylbutanamide] |
| −0.28 | −8.10 | −7.40 | −28.00 | Cc1cccc(C)c1OCC(C)NC(=O)[C@@H](N)CC(C)C (stereo partly drawn) [Compound 3, (2S)-2-amino-N-(1-(2,6-dimethylphenoxy)propan-2-yl)-4-methylpentanamide] |
| −0.10 | −5.80 | −5.90 | −12.40 | Cc1cccc(C)c1OCC(C)NC(=O)CN (stereo not shown) [Compound 17, 2-amino-N-(1-(2,6-dimethylphenoxy)propan-2-yl)acetamide] |
| −0.21 | −4.7 | −4.8 | −10.4 | N[C@H](c1ccccc1)c1nc2cc(C(F)(F)F)cc(C(F)(F)F)c2[nH]1 [Compound 57, (R)-(4,6-bis(trifluoromethyl)-1H-benzo[d]imidazol-2-yl)(phenyl)methanamine] |
| −0.12 | −11.40 | −5.70 | −8.50 | CC12CC3CC(C)(C1)CC(NC(=O)[C@H]1CCCN1)(C3)C2 [Compound 43, (2R)-N-(3,5-dimethyladamantan-1-yl)pyrrolidine-2-carboxamide] |
